# Data: patent US20070071746A1, “C/CLP antagonists and methods of use thereof” (MEDIMMUNE, INC., priority 2005, published 2007)
# “Also recorded” adds a separate entry of the source.
# Experiments:
# [1] = 4-Mu-Chitotrioside assay, activity of recombinant AMCase proteins; format: biochemical; conditions: 4-Mu-Chitotrioside assay (soluble substrate)
# Experimental: Activity Assays Used: Chitinase activity was assayed using two different but commonly used assays. One assay (4-Mu-Chitotrioside assay) utilized 4-methylumbelliferyl-β-D-N,N′,N″-triacetylchitotrise as a substrate (see, e.g., Hollak et al., 1994, J. Clin. Invest. 93: 1288-92). The other (chitin-azure assay) utilized chitin azure as a substrate (see, e.g., Thompson et al., (2001) Appl Environ Microbiol. 67:4001-4008).
# peritoneal macrophages = test: Cytokine induction assay with recombinant mYKL-40; format: cell-based, mouse; conditions: for secretion of IL-6 / secretion of KC: increasing amounts of recombinant mYKL-40
# Experimental: Isolation of peritoneal macrophaaes: 4-6 week old Balb/c mice were injected i.p. with 1 ml of fluid thioglyclollate medium (Becton, Dickinson and Company, Sparks, Md.). 4 days later peritoneal macrophages were harvested by lavage (ice-cold PBS w/o Ca, Mg, 10 ml/mouse). Cells were washed with PBS twice and resuspended in 10% FBS/RPMI 1640 medium (Glutamax, 25 mM Hepes, 1×antibiotic-antimycotic (Invitrogen, Grand Island, N.Y.) at 2.5×10^6 cells/ml. Cells were plated in 96 well TC plates (100 μl/well). After overnight incubation at 37° C. nonadherent cells were removed by washing with serum free RPMI 1640. 100 μl/well of 10% FBS/RPMI 1640 were added and cells were cultured for 72 hr.
# Cytokine Induction Assays: isolated peritoneal macrophages (described above) were washed with PBS, proteins and antibodies, concentrated supernatants, were added in 2% FBS/RPMI 1640, 100 μl/well. After 18 hr incubation supernatants were collected and cytokine concentrations were measured using mouse cytokine multiplex kit (Upstate, Lake Placid, N.Y.) on Luminex 100.
# galectin 1 = galectin 1 (Homo sapiens, UniProt P09382); test: C/CLP-Galectin Interaction ELISA; format: binding
# galectin 1, sequence (P09382 2-135 limits assumed): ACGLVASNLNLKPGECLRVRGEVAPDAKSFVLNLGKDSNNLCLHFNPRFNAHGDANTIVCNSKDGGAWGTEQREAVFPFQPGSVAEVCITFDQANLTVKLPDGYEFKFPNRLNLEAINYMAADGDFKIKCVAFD
# Experimental: (§1) C/CLP-Galectin Interaction ELISA: Galectin is immobilized on a microtiter plate in DPBS over night at 2-8° C. The plates are then washed with DPBS, 0.1% Tween 20 and blocked for 1 hour at room temperature. Serial dilutions of biotin labeled AMCase are added to each well and incubated for ˜1 hour at room temperature followed by HRP labeled streptavidin. Horseradish peroxydase activity is detected with TMB substrate (KPL, MD) and the reaction is quenched with 1% H2SO4. The absorbance is read at 450 nm.
# galectin 2 = molecular target: T1, galectin 2 (Homo sapiens, UniProt P05162); test: C/CLP-Galectin Interaction ELISA; format: binding
# T1 sequence (P05162 1-132): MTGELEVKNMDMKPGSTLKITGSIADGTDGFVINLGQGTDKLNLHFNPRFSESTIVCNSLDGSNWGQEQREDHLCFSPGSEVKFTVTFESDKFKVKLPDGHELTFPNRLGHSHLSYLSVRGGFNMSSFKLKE
# Experimental: as §1
# galectin 7 = galectin 7 (Homo sapiens, UniProt P47929); test: C/CLP-Galectin Interaction ELISA; format: binding
# galectin 7, sequence (P47929 whole entry): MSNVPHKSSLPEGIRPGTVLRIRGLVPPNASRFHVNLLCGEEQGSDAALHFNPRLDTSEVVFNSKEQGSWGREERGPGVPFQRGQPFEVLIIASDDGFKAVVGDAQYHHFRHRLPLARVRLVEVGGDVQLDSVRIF
# Experimental: as §1
# galectin 8 = molecular target: T2, galectin 8 (Homo sapiens, UniProt O00214); test: C/CLP-Galectin Interaction ELISA; format: binding
# T2 sequence (O00214 1-317): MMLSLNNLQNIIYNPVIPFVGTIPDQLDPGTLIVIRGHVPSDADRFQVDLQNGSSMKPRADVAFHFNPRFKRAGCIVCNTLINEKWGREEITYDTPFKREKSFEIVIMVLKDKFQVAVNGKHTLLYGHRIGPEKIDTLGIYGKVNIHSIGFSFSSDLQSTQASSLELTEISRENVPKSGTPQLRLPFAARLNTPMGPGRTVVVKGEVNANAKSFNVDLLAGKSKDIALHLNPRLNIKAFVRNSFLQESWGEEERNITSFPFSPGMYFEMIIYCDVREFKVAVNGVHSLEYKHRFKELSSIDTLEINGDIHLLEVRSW
# Experimental: as §1
# [2] = test system: human AMCase / human galectin 3; test: C/CLP-Galectin Interaction ELISA; format: binding; conditions: listed as full length human AMCase
# Experimental: as §1
# [3] = molecular target: T3, human AMCase / human galectin 4 (Homo sapiens, UniProt P56470); test: C/CLP-Galectin Interaction ELISA; format: binding
# T3 construct: 6xHis (C); made in house; host or cells: HEK293 (AMCase)
# T3 sequence (P56470 1-323): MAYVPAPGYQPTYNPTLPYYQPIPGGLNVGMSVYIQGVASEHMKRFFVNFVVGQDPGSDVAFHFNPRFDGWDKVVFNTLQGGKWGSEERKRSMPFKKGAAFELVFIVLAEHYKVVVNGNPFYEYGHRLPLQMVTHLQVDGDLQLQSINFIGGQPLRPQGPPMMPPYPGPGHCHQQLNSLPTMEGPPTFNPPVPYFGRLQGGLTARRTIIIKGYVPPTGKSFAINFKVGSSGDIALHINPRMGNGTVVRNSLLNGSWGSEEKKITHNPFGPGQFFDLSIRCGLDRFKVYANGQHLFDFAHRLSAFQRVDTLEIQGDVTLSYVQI
# Experimental: as §1
# [4] = test system: memory T cells isolated from human blood; test: Galectin-3 induced apoptosis in memory T cells; format: cell-based
# Jurkat cells = test: Galectin Induced Calcium Flux; format: cell-based, human; conditions: for inhibition of galectin-3 induced calcium flux: 200 μg/ml, versus 100 μg/ml; for calcium flux in Jurkat cells: galectin-3 40 μg/ml
# Experimental: Galectin Induced Calcium Flux: Jurkat cells were labeled with Fluo-4AM and Fura-Red. galectin-3 (40 μg/ml) was added to the cells and Ca flux was analyzed as FL1/FL3. Analysis was performed for 5 minutes. For interaction analysis gal-3 (40μg/ml) is pre-incubated with huAMCase (100-200 μg/ml) or huChTrase (100-200 μg/ml) for 15 mins at RT prior to addition.
# Jurkat T cells = test: Galectin-3 induced apoptosis in Jurkat T cells; format: cell-based, human
# [5] = molecular target: T4, mouse AMCase / mouse galectin-3 (Mus musculus, UniProt Q91XA9); test: C/CLP-Galectin Interaction ELISA; format: binding; conditions: data not shown
# T4 construct: 6xHis (C); made in house; host or cells: HEK293 (FreeStyle 293), secreted and purified on nickel NTA
# T4 sequence (Q91XA9 22-473): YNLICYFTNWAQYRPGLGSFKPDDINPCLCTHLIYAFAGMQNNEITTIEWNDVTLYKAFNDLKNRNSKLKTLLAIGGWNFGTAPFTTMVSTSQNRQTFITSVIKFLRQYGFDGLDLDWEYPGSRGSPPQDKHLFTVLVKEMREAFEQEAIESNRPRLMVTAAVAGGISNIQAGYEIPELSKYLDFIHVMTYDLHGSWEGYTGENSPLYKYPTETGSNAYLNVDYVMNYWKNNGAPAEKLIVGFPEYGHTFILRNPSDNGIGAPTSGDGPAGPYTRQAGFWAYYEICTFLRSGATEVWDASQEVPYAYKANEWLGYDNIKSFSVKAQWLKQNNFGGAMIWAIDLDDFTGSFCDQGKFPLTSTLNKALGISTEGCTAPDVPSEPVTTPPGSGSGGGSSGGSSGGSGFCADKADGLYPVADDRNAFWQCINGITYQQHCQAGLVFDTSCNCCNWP
# Experimental: as §1
# [6] = molecular target: T5, mouse AMCase / mouse galectin-4 (Mus musculus, UniProt Q91XA9); test: C/CLP-Galectin Interaction ELISA; format: binding; conditions: data not shown
# T5 construct: 6xHis (C); made in house; host or cells: HEK293 (FreeStyle 293), secreted and purified on nickel NTA
# T5 sequence (Q91XA9 22-473): as above
# Experimental: as §1
# [7] = listed as recombinant mouseYKL-40
compound,measurement,setting,value
AMCase-TR: recombinant AMCase protein lacking the CBD,activity of recombinant AMCase proteins,[1],high activity
same,activity of recombinant AMCase proteins,[1]; listed as truncated form,active
mYKL-40: recombinant mouse YKL-40/BRP-39,induction of IL-10,peritoneal macrophages,induced
same,induction of RANTES,peritoneal macrophages,induced
same,induction of TNF-α,peritoneal macrophages,induced
same,secretion of IL-6,peritoneal macrophages,increase
same,secretion of KC,peritoneal macrophages,increase
same,secretion of IL-6,peritoneal macrophages; [7],dose sensitive increase
same,secretion of KC,peritoneal macrophages; [7],dose sensitive increase
AMCase: recombinant human acidic mammalian chitinase,binding of AMCase to galectin 1,galectin 1,not
same,binding of AMCase to galectin 2,galectin 2,not
same,binding of AMCase to galectin 7,galectin 7,not
same,binding of AMCase to galectin 8,galectin 8,not
same,binding of AMCase to galectin 3,[2],confirmed; also recorded: binds
same,binding of AMCase to galectin 4,[3]; listed as full length human AMCase,confirmed; also recorded: binds
same,inhibition of galectin-3 induced apoptosis of memory T cells,"[4]; 10 μg galectin-3, 50 μg or more of AMCase",inhibited; also recorded: significant inhibition
same,inhibition of galectin-3 mediated calcium flux,Jurkat cells,inhibited
same,inhibition of galectin-3 induced calcium flux,Jurkat cells,further inhibition
rhuGal-3: recombinant human Galectin 3,apoptosis of Jurkat T cells,Jurkat T cells; 1 μg rhuGal-3,Little to no apoptosis
same,apoptosis of Jurkat T cells,"Jurkat T cells; 5, 10 and 30 μg rhuGal-3",increased apoptosis
same,apoptosis of Jurkat T cells,"Jurkat T cells; 5, 10 and 30 μg rhuGal-3, listed as Galectin-3",induce apoptosis
same,apoptosis of memory T cells,[4]; galectin-3 alone,induced apoptosis
same,calcium flux in Jurkat cells,Jurkat cells; listed as Galectin,results in calcium flux
same,calcium flux in Jurkat cells,Jurkat cells; listed as Galectin-3,mediate calcium flux
full length AMCase: recombinant full length AMCase protein,activity of recombinant AMCase proteins,[1],high activity; also recorded: active
D136A: AMCase full length protein containing the D136A mutation [Antibody D136A],activity of recombinant AMCase proteins,[1],no activity; also recorded: completely abolished activity
"OC[C@H]1O[C@@H](O[C@H]2[C@H](O)[C@@H](O)C(O)O[C@@H]2CO)[C@H](O)[C@@H](O)[C@H]1O (some centres unmarked) [lactose, reference compound]",inhibition of binding of Human AMCase to Galectin 4,[3],inhibited
same,effect on galectin-3 induced apoptosis of Jurkat T cells,Jurkat T cells; addition of lactose,abolished; also recorded: reduced the levels of apoptosis seen to nearly background levels
Cht: recombinant human chitotriosidase,inhibition of galectin-3 mediated calcium flux,Jurkat cells,inhibited
same,inhibition of galectin-3 induced calcium flux,Jurkat cells,not
mouse AMCase: recombinant mouse acidic mammalian chitinase,binding of mouse AMCase to mouse galectin-3,[5],bind
same,binding of mouse AMCase to mouse galectin-4,[6],bind
